From publication PMC9964390, “Design, Synthesis and Phenotypic Profiling of Simplified Gedatolisib Analogues” (Pharmaceuticals, 2023)
Values after ≈ are worked out from the molar mass of the structure shown. Read-outs that look alike come from different tables or passages of the source.

Experiments:
[1] = system: PC-3, MCF7, K562, CCRF-CEM and MOLT-4; assay: MTT single-concentration cytotoxicity screening; assay type: cell-based, human; conditions: for solubility in the culture medium: during screening at 30 μM; for cytotoxic activity at screening concentration: single concentration 1 μM; for cytotoxic effect on leukemia cell lines at single concentration: single concentration 30 μM, reduction in cell viability ≥ 50% selected for CC50
Procedure: In a first approach, the assay was validated with two standard drugs: gedatolisib and GSK-1059615.
After understanding the response profile of the selected cell lines to the treatment with gedatolisib and GSK-1059615, we investigated the cytotoxic activity of compounds 5a-f at a single concentration (30 μM). […] During the experiments, compounds 5a (LASSBio-2250), 5b (LASSBio-2251) and 9 (CAS-942789959) were insoluble and precipitated on the culture medium. Therefore, they were evaluated also at the screening concentration of 1 μM.
(§1) Cell viability was assessed by the MTT assay. The lines selected for this study were plated according to their respective densities, which ranged from 3 × 10^4 to 4 × 10^4 cells per well. Subsequently, they were treated with test compounds at different concentrations (0.00003 μM to 150 μM), gedatolisib and GSK-1059615.
(§2) After incubation, the plates are centrifuged at 440× g for 10 min. Then, 110 μL of the supernatant was withdrawn and each well received 10μL of the MTT solution. The plate was again incubated in an oven at 37 °C and 5% CO2 for 3 to 4 h. At the end of the incubation time, 100 μL of SDS-HCL detergent was added to solubilize the formazan crystals. The plate was shaken on an automatic overnight shaker and then read at a wavelength of 595 nm on the Molecular Devices Spectramax M5 plate reader.

[2] = pH-dependent aqueous solubility (UV spectrophotometry); assay type: physicochemical; conditions: aqueous buffer, thermodynamic from solid, 37 °C
Procedure: A stock solution of the target compound was prepared by dissolving 1 mg in methanol, and the wavelength of greatest absorption of each compound was obtained by scanning between wavelengths from 200 nm to 500 nm. Six dilutions were prepared from the stock solution and the absorbance reading in the UV spectrophotometer (SpectraMax M5, Molecular Devices, USA). The calibration curve with linear regression was created with the values obtained, and the solubility test was measured by correlating the concentration with the absorbance obtained by ultraviolet. Each compound was added in excess at phosphate buffer solution pH 5.8 and 7.4 to obtain a supersaturated solution that was kept under stirring for 4 h at 37 °C and then was filtered through a 0.45 µm filter for reading at the corresponding wavelengths. The solubility was determined through the equation of the straight line obtained by the linear regression of the calibration curve of the compounds [24, 25].

[3] = system: MOLT-4; assay: MTT cell viability assay; assay type: cell-based, human; conditions: Homo sapiens, MOLT-4, 72 h MTT; for CC50: 95% confidence interval in brackets; for Emax: read-out: Emax (maximum effect at maximum concentration used)
Procedure: (§3) For the evaluation of cellular cytotoxicity in cancer cell lines, the compounds were tested at concentrations ranging from 0.00003 μM to 150 μM. Immortalized cancer cells were selected: PC-3 (PTEN-mutated prostate adenocarcinoma), MCF-7 (PI3KCA-mutated breast carcinoma), K562 (P53-mutated chronic myeloid leukemia), CCRF-CEM (acute lymphoblastic leukemia with mutation in PTEN) and MOLT-4 (acute lymphoblastic leukemia with mutation in PI3KR1/PTEN). Peripheral blood mononuclear cells (PBMCs) were used to determine the cytotoxic selectivity index (SI). All immortalized cells were cultured in RPMI 1640 medium with 10% (v/v) FBS, streptomycin + penicillin, at 37 °C in a humidified incubator containing 5% CO2.
as §1, §2

[4] = system: CCRF-CEM; assay: MTT cell viability assay; assay type: cell-based, human; conditions: Homo sapiens, 72 h MTT; for CC50: 95% confidence interval in brackets; for Emax: read-out: Emax (maximum effect at maximum concentration used)
Procedure: as §3, §1, §2

[5] = system: MCF7; assay: MTT cell viability assay; assay type: cell-based; conditions: Homo sapiens, MCF7, 72 h MTT; for CC50: 95% confidence interval in brackets; for Emax: read-out: Emax (maximum effect at maximum concentration used)
Procedure: as §3, §1, §2

[6] = system: PC-3; assay: MTT cell viability assay; assay type: cell-based; conditions: Homo sapiens, PC-3, 72 h MTT; for CC50: 95% confidence interval in brackets; for Emax: read-out: Emax (maximum effect at maximum concentration used)
Procedure: as §3, §1, §2

[7] = system: K562; assay: MTT cell viability assay; assay type: cell-based; conditions: Homo sapiens, K562, 72 h MTT; for CC50: 95% confidence interval in brackets; for Emax: read-out: Emax (maximum effect at maximum concentration used)
Procedure: as §3, §1, §2

[8] = system: CCRF-CEM cell line; assay: Muse Cell Cycle Kit; assay type: cell-based, human; conditions: 48 h
Procedure: The Guava Muse Luminex® Cell Cycle Kit (catalog n^o MCH100106, Luminex) contains the DNA marker propidium iodide (PI) and RNAse A to avoid nonspecific labelling.
After 48 h of incubation in an incubator at 37 °C with 5% CO2, 1 mL of the MOLT-4 cell solution and 500 µL of the CCRF-CEM cell solution, contained in the wells, were transferred to Eppendorf tubes and centrifuged at 300× g for 5 min. The volumes used ensured that the cell density remained within the recommended range (1 × 10^6 to 4 × 10^6 cells/mL) at the end of the 48 h incubation period.
The supernatant was discarded, and the pellet formed was resuspended in 1 mL of saline PBS, homogenised, and centrifuged at 300× g for 5 min. The formed pellet was resuspended in residual PBS by homogenization. To fix cellular events, 1 mL of ice-cold 70% alcohol was added dropwise into the tubes and vortexed at medium speed. The samples were incubated, before staining, for at least 3 h at −20 °C.
At the end of the incubation time at −20 °C, the samples were centrifuged at 300× g for 5 min, and then the supernatant was discarded and resuspended in 250 µL of PBS. The samples were again centrifuged at 300× g for 5 min and the supernatant discarded, which constituted the washing step. The pellet formed was resuspended in 200 µL of the Guava Muse Luminex® Cell Cycle, and the tubes were incubated for 30 min at room temperature, away from light.
After incubation, the samples were read in Guava Muse Luminex®, and the data with the histograms generated, which contain information on the percentage of the different phases of the cell cycle, were analysed in the statistical program Prism6. This methodology was performed in duplicate of three independent experiments.

[9] = phosphate buffer pH 5.8 (duodenum), read-out: Solubility pH 5.8
[10] = phosphate buffer pH 7.4 (plasma), read-out: Solubility pH 7.4

| melting point [°C] | solubility at 4 h [2, 9] [µM] | solubility at 4 h [2, 10] [µM] | Structure (SMILES) | solubility in the culture medium [1] | cytotoxic activity at screening concentration [1] | CC50 [3] [µM] | Emax [3] [%] | CC50 [4] [µM] | Emax [4] [%] | CC50 [5] [µM] | Emax [5] [%] | CC50 [6] [µM] | Emax [6] [%] | CC50 [7] [µM] | Emax [7] [%] | further results |
| --- | --- | --- | --- | --- | --- | --- | --- | --- | --- | --- | --- | --- | --- | --- | --- | --- |
| 170 | 0.52 (≈ 0.222 µg/mL) | 2.88 (≈ 1.23 µg/mL) | c1ccc(N2CCN(c3nc(N4CCOCC4)nc(N4CCSCC4)n3)CC2)cc1 [5a, 4-(4-(4-Phenylpiperazin-1-yl)-6-thiomorpholino-1,3,5-triazin-2-yl)morpholine] | insoluble | inactive |  |  |  |  |  |  |  |  |  |  |  |
|  | 2.84 (≈ 1.16 µg/mL) | 0.51 (≈ 0.209 µg/mL) | c1ccc(N2CCN(c3nc(N4CCCCC4)nc(N4CCOCC4)n3)CC2)cc1 [5b, 4-(4-(4-Phenylpiperazin-1-yl)-6-(piperidin-1-yl)-1,3,5-triazin-2-yl)morpholine] | insoluble | inactive |  |  |  |  |  |  |  |  |  |  |  |
|  | 43.4 (≈ 17.8 µg/mL) | 59.1 (≈ 24.3 µg/mL) | c1ccc(N2CCN(c3nc(N4CCNCC4)nc(N4CCOCC4)n3)CC2)cc1 [5c] |  |  | 31.8 | 93 | 37.3 | 94 | > 100 | 57 | 92.3 | 58 | 25.6 | 85 | cytotoxic effect on leukemia cell lines at single concentration [1]: cytotoxic effect |
| 135 | 30.7 (≈ 13 µg/mL) | 50.9 (≈ 21.6 µg/mL) | CN1CCN(c2nc(N3CCOCC3)nc(N3CCN(c4ccccc4)CC3)n2)CC1 [5d, 4-(4-(4-Methylpiperazin-1-yl)-6-(4-phenylpiperazin-1-yl)-1,3,5-triazin-2-yl)morpholine] |  |  | 64.1 | 91 | 66.5 | 95 | > 100 | 77 | 91.3 | 72 | 50.2 | 80 | cytotoxic effect on leukemia cell lines at single concentration [1]: cytotoxic effect |
| 92 | 31.2 (≈ 14.2 µg/mL) | 49.1 (≈ 22.3 µg/mL) | OCCN1CCN(c2nc(N3CCOCC3)nc(N3CCN(c4ccccc4)CC3)n2)CC1 [5e, 2-(4-(4-Morpholino-6-(4-phenylpiperazin-1-yl)-1,3,5-triazin-2-yl)piperazin-1-yl)ethan-1-ol] |  |  |  |  |  |  |  |  |  |  |  |  |  |

Further lines, the compound ahead of its results:

| Structure (SMILES) | melting point [°C] | solubility at 4 h [2, 9] [µM] | solubility at 4 h [2, 10] [µM] | solubility in the culture medium [1] | cytotoxic activity at screening concentration [1] | CC50 [3] [µM] | Emax [3] [%] | CC50 [4] [µM] | Emax [4] [%] | CC50 [5] [µM] | Emax [5] [%] | CC50 [6] [µM] | Emax [6] [%] | CC50 [7] [µM] | Emax [7] [%] | further results |
| --- | --- | --- | --- | --- | --- | --- | --- | --- | --- | --- | --- | --- | --- | --- | --- | --- |
| O=C1NC(=O)/C(=C/c2ccc3nccc(-c4ccncc4)c3c2)S1 [GSK-1059615, reference compound] |  |  |  |  |  | 0.63 | 92 | 0.43 | 93 | 0.55 | 80 | 6.78 | 67 | 1.82 | 84 |  |
| CC[C@]1(O)C[C@H]2CN(CCc3c([nH]c4ccccc34)[C@@](C(=O)OC)(c3cc4c(cc3OC)N(C=O)[C@H]3[C@@](O)(C(=O)OC)[C@H](OC(C)=O)[C@]5(CC)C=CCN6CC[C@]43[C@@H]65)C2)C1 [Vincristine, vincristine] |  |  |  |  |  |  |  |  |  |  |  |  |  |  |  | action on the cell cycle ([8]; 5 µM): increased arrest in the G2/M phase |
| c1ccc(N2CCN(c3nc(N4CCOCC4)nc(N4CCOCC4)n3)CC2)cc1 [compound 9, reference compound] |  | 3.92 (≈ 1.61 µg/mL) | 6.03 (≈ 2.48 µg/mL) | insoluble | inactive |  |  |  |  |  |  |  |  |  |  |  |
| COc1cccc2c1C(=O)c1c(O)c3c(c(O)c1C2=O)C[C@@](O)(C(=O)CO)C[C@@H]3O[C@H]1C[C@H](N)[C@H](O)[C@H](C)O1 [doxorubicin] |  |  |  |  |  |  |  |  |  |  |  |  |  |  |  | action on the cell cycle ([8]; 0.5 µM): nonspecific action on the cell cycle |
